Results published in PubChem BioAssay AID270 (DTP/NCI, 2004).
“And” between values parts separate entries of the source, which are not always exact repeats. Equal entries are not always repeated. Results filed as inconclusive are left out.

Test system: BDF1 mice, s.c. Lewis lung carcinoma, T/C %
Assay: NCI In Vivo Anticancer Drug Screen. Data for tumor model Lewis Lung Carcinoma (subcutaneous) in B6D2F1 (BDF1) mice
Procedure, shortened: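 Tumor-bearing mice were treated with test compound, and either survival or tumor size was recorded. Values are the treated-group measurement divided by that of the vehicle-treated control group.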

[1] = endpoint: mean tumor weight, dose: 200.0 mg/kg/injection, schedule: Q01DX011 (ip), vehicle: other, higher = larger tumour
[2] = endpoint: median survival time, dose: 10.0 mg/kg/injection, schedule: Q01DX001 (ip), vehicle: Klucel (hydroxypropylcellulose) (HPC), higher = longer survival
[3] = endpoint: median survival time, dose: 20.0 mg/kg/injection, schedule: Q01DX001 (ip), vehicle: Klucel (hydroxypropylcellulose) (HPC), higher = longer survival
[4] = endpoint: median survival time, dose: 40.0 mg/kg/injection, schedule: Q01DX001 (ip), vehicle: Klucel (hydroxypropylcellulose) (HPC), higher = longer survival
[5] = endpoint: median survival time, dose: 80.0 mg/kg/injection, schedule: Q01DX001 (ip), vehicle: Klucel (hydroxypropylcellulose) (HPC), higher = longer survival
[6] = endpoint: median survival time, dose: 160.0 mg/kg/injection, schedule: Q01DX001 (ip), vehicle: Klucel (hydroxypropylcellulose) (HPC), higher = longer survival

CCCn1cnc2c(SCc3ccccc3Cl)nc(N)nc21
T/C (endpoint: mean tumor weight, dose: 25.0 mg/kg/injection, schedule: Q01DX011 (ip), vehicle: other, higher = larger tumour): 66 % of control
T/C (endpoint: mean tumor weight, dose: 50.0 mg/kg/injection, schedule: Q01DX011 (ip), vehicle: other, higher = larger tumour): 102 % of control
T/C (endpoint: mean tumor weight, dose: 100.0 mg/kg/injection, schedule: Q01DX011 (ip), vehicle: other, higher = larger tumour): 89 % of control
T/C [1]: 65 % of control

O=NN(CCCl)C(=O)NC1C2CC3CC(C2)CC1C3 (stereo not drawn)
T/C [2]: 99 % of control and 111 % of control
T/C [3]: 100 % of control
T/C (endpoint: median survival time, dose: 25.0 mg/kg/injection, schedule: Q01DX001 (ip), vehicle: saline with Tween-80, higher = longer survival): 102 % of control
T/C (endpoint: median survival time, dose: 38.0 mg/kg/injection, schedule: Q01DX001 (ip), vehicle: saline with Tween-80, higher = longer survival): 101 % of control
T/C [4]: 106 % of control
T/C (endpoint: median survival time, dose: 57.0 mg/kg/injection, schedule: Q01DX001 (ip), vehicle: saline with Tween-80, higher = longer survival): 96 % of control
T/C [5]: 110 % of control
T/C (endpoint: median survival time, dose: 85.0 mg/kg/injection, schedule: Q01DX001 (ip), vehicle: saline with Tween-80, higher = longer survival): 99 % of control and 121 % of control
T/C [6]: 113 % of control
T/C (endpoint: median tumor weight (est.), dose: 25.0 mg/kg/injection, schedule: Q01DX001 (ip), vehicle: DMSO, higher = larger tumour): 39 % of control
T/C (endpoint: median tumor weight (est.), dose: 25.0 mg/kg/injection, schedule: Q01DX001 (sc), vehicle: olive oil, sesame oil, peanut oil, higher = larger tumour): 80 % of control
T/C (endpoint: median tumor weight (est.), dose: 38.0 mg/kg/injection, schedule: Q01DX001 (sc), vehicle: olive oil, sesame oil, peanut oil, higher = larger tumour): 60 % of control
T/C (endpoint: median tumor weight (est.), dose: 57.0 mg/kg/injection, schedule: Q01DX001 (ip), vehicle: DMSO, higher = larger tumour): 3 % of control
T/C (endpoint: median tumor weight (est.), dose: 57.0 mg/kg/injection, schedule: Q01DX001 (sc), vehicle: olive oil, sesame oil, peanut oil, higher = larger tumour): 52 % of control
T/C (endpoint: median tumor weight (est.), dose: 80.0 mg/kg/injection, schedule: Q01DX001 (ip), vehicle: saline with Tween-80, higher = larger tumour): 53 % of control
T/C (endpoint: median tumor weight (est.), dose: 85.0 mg/kg/injection, schedule: Q01DX001 (sc), vehicle: olive oil, sesame oil, peanut oil, higher = larger tumour): 36 % of control
T/C (endpoint: median tumor weight (est.), dose: 161.0 mg/kg/injection, schedule: Q01DX001 (ip), vehicle: saline with Tween-80, higher = larger tumour): 60 % of control
T/C (endpoint: median tumor weight (est.), dose: 215.0 mg/kg/injection, schedule: Q01DX001 (ip), vehicle: saline with Tween-80, higher = larger tumour): 7 % of control

CC(=O)Nc1c(Cl)cc2c(c1Cl)Cc1cc([N+](=O)[O-])ccc1-2
T/C (endpoint: mean tumor weight, dose: 20.0 mg/kg/injection, schedule: Q01DX011 (ip), vehicle: carboxymethylcellulose (CMC), higher = larger tumour): 55 % of control
T/C (endpoint: mean tumor weight, dose: 40.0 mg/kg/injection, schedule: Q01DX011 (ip), vehicle: carboxymethylcellulose (CMC), higher = larger tumour): 32 % of control

CS(=O)(=O)c1ccccc1
T/C (endpoint: mean tumor weight, dose: 58.0 mg/kg/injection, schedule: Q01DX011 (ip), vehicle: other, higher = larger tumour): 99 % of control
T/C (endpoint: mean tumor weight, dose: 88.0 mg/kg/injection, schedule: Q01DX011 (ip), vehicle: other, higher = larger tumour): 103 % of control
T/C (endpoint: mean tumor weight, dose: 133.0 mg/kg/injection, schedule: Q01DX011 (ip), vehicle: other, higher = larger tumour): 83 % of control
T/C [1]: 79 % of control
T/C (endpoint: mean tumor weight, dose: 250.0 mg/kg/injection, schedule: Q01DX011 (ip), vehicle: other, higher = larger tumour): 77 % of control
T/C (endpoint: mean tumor weight, dose: 500.0 mg/kg/injection, schedule: Q01DX011 (ip), vehicle: other, higher = larger tumour): 80 % of control
T/C (endpoint: mean tumor weight, dose: 750.0 mg/kg/injection, schedule: Q01DX011 (ip), vehicle: other, higher = larger tumour): 76 % of control
T/C (endpoint: mean tumor weight, dose: 1000.0 mg/kg/injection, schedule: Q01DX011 (ip), vehicle: other, higher = larger tumour): 93 % of control

O=NN(CCCl)C(=O)NC1CC2CCC1C2 (stereo not drawn)
T/C [2]: 102 % of control and 108 % of control
T/C [3]: 99 % of control and 102 % of control
T/C [4]: 106 % of control
T/C [5]: 260 % of control
T/C [6]: 117 % of control

IP(c1ccccc1)(c1ccccc1)(c1ccccc1)N1C2CCCCC21 (stereo not drawn)
T/C (endpoint: median survival time, dose: 0.3 mg/kg/injection, schedule: Q01DX009 (ip), vehicle: Klucel (hydroxypropylcellulose) (HPC), higher = longer survival): 94 % of control
T/C (endpoint: median survival time, dose: 0.6 mg/kg/injection, schedule: Q01DX009 (ip), vehicle: Klucel (hydroxypropylcellulose) (HPC), higher = longer survival): 103 % of control
T/C (endpoint: median survival time, dose: 38.0 micrograms/kg/injection, schedule: Q01DX009 (ip), vehicle: Klucel (hydroxypropylcellulose) (HPC), higher = longer survival): 94 % of control
T/C (endpoint: median survival time, dose: 75.0 micrograms/kg/injection, schedule: Q01DX009 (ip), vehicle: Klucel (hydroxypropylcellulose) (HPC), higher = longer survival): 91 % of control
T/C (endpoint: median survival time, dose: 150.0 micrograms/kg/injection, schedule: Q01DX009 (ip), vehicle: Klucel (hydroxypropylcellulose) (HPC), higher = longer survival): 104 % of control
T/C (endpoint: median survival time, dose: 300.0 micrograms/kg/injection, schedule: Q01DX009 (ip), vehicle: Klucel (hydroxypropylcellulose) (HPC), higher = longer survival): 91 % of control
